Results filed as inconclusive are left out. Calls of active or inactive are those of the source. The rule behind the calls is not given here.
Assays:
[1] = blockers of dynein-driven microtubule transport – imaging, high-content imaging, dose response (AID 463136); details: HCS imaging, dynein-mediated cargo transport inhibition; inhibition at max concentration; at 50 µM; stronger effect = higher value;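 note: mouse mammary adenocarcinoma 3617.4 cells expressing GFP-tagged rat glucocorticoid receptor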; for inhibition: reference of the scale not given here
[2] = tested on: HCS imaging, dynein-mediated cargo transport inhibition; assay: as above

Compound	inhibition [1] [%]	IC50 [2]
O=C1C=C(c2ccc(Cl)cc2)C(=O)N1Nc1ccccc1	75.7	39.3 µM
CCN1/C(=C/c2ccc3ccc(C)cc3[n+]2CC)Sc2ccccc21	98.5	2.13 µM
BrC(=C\c1ccccc1)/C=N/n1cnnc1	90.7	18.4 µM
O=C(OCn1ncc(Br)c(Br)c1=O)c1c(F)cccc1F	81.6	18.5 µM
CC(=O)O[C@@H]1C[C@H]2C(C)(C)C(=O)C=C[C@]2(C)[C@H]2CC[C@@]3(C)[C@H](c4ccoc4)OC(=O)[C@H]4O[C@]43[C@@]21C	77.9	33.6 µM
CC1C/C(=C/c2ccco2)C(=O)/C(=C/c2ccco2)C1 (stereo not given)	64.1	39.2 µM
Cn1c(=O)c(Nc2ccc(Cl)cc2)c2c3c(cccc31)C(=O)c1ccccc1-2	97.8	31 µM
N#Cc1cccc(N=c2ssnc2Cl)c1	14.7	> 50 µM (inactive)
CCCSc1cc(NCCOC(=O)CCC)c([N+](=O)[O-])c2nonc12	59.1	28.4 µM
Cc1cccc(Cn2ncc(Cl)c(Cl)c2=O)c1	84.7	13 µM
N#C/C(=C/c1ccc(N2CCCCC2)o1)C(=O)NCCc1c[nH]c2ccccc12	98.8	31.8 µM
COc1cccc(-n2nc(C#N)c(Cl)cc2=O)c1	48.5	11.2 µM
Nc1nc(Sc2c([N+](=O)[O-])cc(C(F)(F)F)cc2[N+](=O)[O-])n[nH]1	44.1	21.9 µM
CCOc1cc(C=C(C(=O)OC)C(=O)OC)ccc1OCc1ccc([N+](=O)[O-])cc1	37.2	> 50 µM (inactive)
COc1ccc(N(C(=O)CCl)C(C(=O)NC2CCCCC2)c2cccnc2)cc1 (stereo not given)	85.5	13.3 µM
O=C(CCl)Nc1ccc(-c2ccccc2)cc1	66	14.3 µM
COC(CN(C(=O)CCl)C(C(=O)NC1CCCCC1)c1ccc(Cl)cc1)OC (stereo not given)	82.6	22.6 µM
Nc1cccc2c1C(=O)N(C(=O)/C=C/c1ccc(F)cc1)C2=O	37.6	> 50 µM (inactive)
O=C(CCl)N(Cc1cccc([N+](=O)[O-])c1)c1cccc(Cl)c1	75	12.2 µM
O=c1c(Cl)c(Cl)cnn1-c1ccccc1	81.7	9.57 µM
O=C(c1nnsc1S(=O)c1ccc(Cl)cc1)N1CCOCC1 (stereo not given)	76.9	2.18 µM
CCOc1ccc(-n2c(C)cc(C(=O)CCl)c2C)cc1	82.2	24.9 µM

Compound	inhibition [1] [%]	IC50 [2]
COc1ccc(-n2c(C)cc(C(=O)CCl)c2C)cc1	80.4	13.1 µM
CCCCN(C)C1=CC2=CC(=C(C#N)C#N)CCC2CC1 (stereo not given)	99.2	13.6 µM
Cn1c(=O)c([N+](=O)[O-])c(Cl)c2ccccc21	84	39.4 µM
CCOC(=O)C1=C(Cc2ccc(OC)cc2)C(=O)c2ccccc2C1=O	21.6	> 50 µM (inactive)
O=C(c1ccccc1)c1ccccc1N1C(=O)C=CC1=O	7.43	> 50 µM (inactive)
CN1CCN(C2=C(Cl)C(=O)C(c3cnc(N4CCCCC4)s3)=C(Cl)C2=O)CC1	94.7	33.3 µM
Nc1c(C(=O)c2ccc(Cl)cc2)sc2nsc(SCCN3CCOCC3)c12	7.23	> 50 µM (inactive)
CCCNC(=O)c1nnsc1S(=O)(=O)c1ccc(Cl)cc1	69.3	8.66 µM
Cc1cc(C)c(S(=O)(=O)ON2C(=O)c3ccccc3C2=O)cc1C	10.5	> 50 µM (inactive)
CCOC(=O)c1c(NC(=O)CCl)sc(CN(C)C)c1-c1ccccc1	74.1	29.9 µM
N#C/C(=C/c1ccc(N2CCCCC2)o1)C(=O)Nc1ccc(Cl)cc1	97.4	40.4 µM
CC(C)(C)C(=O)Cn1ncc(Cl)c(Cl)c1=O	90.6	7.93 µM
Cc1ccc(SC(=O)c2c(C)noc2-c2cc(C)on2)cc1	37.3	> 50 µM (inactive)
O=C(/C(=C/c1ccc(Cl)cc1)c1nc2ccccc2[nH]1)c1ccccc1	21.4	> 50 µM (inactive)
O=c1[nH]sc2ccccc12	91	10.9 µM
N#C/C(=C/c1ccc(N2CCCCCC2)o1)c1ccc(F)cc1	33.8	> 50 µM (inactive)
CC(=O)n1cc(N(C(=O)CCl)c2ccc([N+](=O)[O-])cc2)c2ccccc21	25.2	> 50 µM (inactive)
CCCn1c(CC)nc([N+](=O)[O-])c1S(=O)(=O)c1ccccc1	85.2	7.21 µM
O=[N+]([O-])c1ccc(Sc2nnnn2-c2ccccc2)nc1	81.6	7.59 µM
O=C1C=C(NC2=CC3OC(c4ccccc4)OCC3OC2=O)CCC1 (stereo not given)	13	> 50 µM (inactive)
CCCCc1cc(O)c(CCCC)c(O)c1	76.8	2.31 µM
O=C1NC(=O)N(c2ccccc2)C(=O)/C1=C/c1ccc([N+](=O)[O-])s1	86.7	13.4 µM

Compound	inhibition [1] [%]	IC50 [2]
C=C1C(=O)[C@@]23[C@H](O)C[C@@H]4C(C)(C)CC[C@H](O)[C@]4(C)[C@@H]2C[C@H](O)[C@@H]1[C@H]3O	54.9	9.84 µM
CCOc1ccc(CN(C)C(=O)CCl)cc1	85.8	10.2 µM
Cc1cc(-c2n[nH]c(=S)n2/N=C/C(Br)=C/c2ccccc2)n[nH]1	82.9	16.5 µM
O=C(CCl)Nc1cccc(Oc2ccccc2)c1	56.5	38.8 µM
C=CS(=O)(=O)c1sc(Cl)c(N2CCOCC2)c1[N+](=O)[O-]	10.2	> 50 µM (inactive)
CCOC(=O)COc1ccc(/C=C/[N+](=O)[O-])c(OCC(=O)OCC)c1	82.8	11.4 µM
O=C1NC(=O)N(c2ccccc2)C(=O)/C1=C\C=C\c1ccccc1	80.9	28.8 µM
O=C(OCCN1C(=O)c2cccc3c(N4CCOCC4)ccc(c23)C1=O)c1ccc(Cl)cc1Cl	2.73	> 50 µM (inactive)
CCOC(=O)c1c(-c2ccc(C)cc2)csc1NC(=O)/C(C#N)=C/c1ccc(O)c(OC)c1	4.51	> 50 µM (inactive)
O=Cc1s/c(=N\S(=O)(=O)c2ccccc2)n(CCCCl)c1Cl	68.2	33.2 µM
O=[N+]([O-])c1ccc(-c2ccc(/C=N/Nc3nc(N4CCCCC4)nc(N4CCCCC4)n3)o2)cc1	22.5	> 50 µM (inactive)
C=CCn1c(Sc2ncc([N+](=O)[O-])s2)n[nH]c1=O	62.3	20 µM
Cc1ccc(NC(=O)CN(C)C(=O)Cn2ncc(Cl)c(Cl)c2=O)cc1	59	7.77 µM
CCCCCCN(C(=O)CCl)c1ccccc1	80.3	17.2 µM
Cc1ccc(/C=C2\CCC3=C2OC(N)=C(C#N)C3c2ccc(C)cc2)cc1 (stereo not given)	111	3.23 µM
COc1cccc(N(C(=O)CCl)C(C(=O)NCCc2ccccc2)c2cccs2)c1 (stereo not given)	85.4	27.1 µM
O=C(Cc1ccccc1)Nc1cccc(N2C(=O)C=CC2=O)c1	4.22	> 50 µM (inactive)
Cc1ccc(/C=C2/C(=O)ON=C2c2ccccc2)o1	15.6	> 50 µM (inactive)
O=C(NCc1cccnc1)/C(=C\c1ccc(-c2ccc(Cl)c(Cl)c2)o1)S(=O)(=O)c1ccccc1	9.8	> 50 µM (inactive)
CC(=O)Oc1ccc(OC(C)=O)c(SCCCCCCl)c1	83.5	17.6 µM
Cc1ccccc1NC(=O)C(Cl)=C(Cl)Cl	77.1	13.4 µM
CCN1C/C(=C/c2ccc(N3CCOCC3)cc2)C(=O)/C(=C/c2ccc(N3CCOCC3)cc2)C1	108	25 µM

Compound	inhibition [1] [%]	IC50 [2]
CCOC(=O)C1=C(SCC)c2cc3c(n2C1=O)CCCC3	37.7	> 50 µM (inactive)
CC(=O)N(C1CC(C)C(C#N)(C#N)C1(C#N)C#N)N(C)C (stereo not given)	5.79	> 50 µM (inactive)
COc1cccc(C2CC3C(=O)C=CC2N3Cc2ccccc2)c1 (stereo not given)	90	13.3 µM
Cc1ccc(C(=O)OCn2ncc(Cl)c(Cl)c2=O)cc1	76.2	18.9 µM
O=c1c(Cl)c(Cl)cnn1Cc1ccccc1Cl	51.4	23.8 µM
Cc1[nH]c2ccccc2c1/C=N/Nc1ccc([N+](=O)[O-])cc1	132	24.8 µM
Cc1c(C#N)c(NC(=O)CCl)n(Cc2cccs2)c1C	69.2	24.7 µM
N#CC12COC3(CCCCC3C1(C#N)C#N)OC2=N (stereo not given)	8.2	> 50 µM (inactive)
Cc1nc([N+](=O)[O-])c(Br)n1CC(=O)c1ccc2ccccc2c1	81.3	5.15 µM
COC(=O)c1ccc(-n2c(C)cc(C(=O)CCl)c2C)cc1	66.8	21.9 µM
COc1cccc(N2C(=O)NC(=O)/C(=C/c3ccc([N+](=O)[O-])s3)C2=O)c1	87.8	10.7 µM
Nc1cccc2c1C(=O)N(C(=O)/C=C/c1cccc(F)c1)C2=O	14.3	> 50 µM (inactive)
COC(=O)[C@@]1(Cc2ccccc2)[C@@H]2C(=CC(=O)[C@H]2CC(=O)C(=O)N(C)C)CN1C(=O)c1ccccc1	86.2	4.67 µM
CC(=O)Cn1ncc(Br)c(Br)c1=O	78.5	5.4 µM
N#Cc1ccccc1Cn1cc(/C=C/[N+](=O)[O-])c2ccccc21	83.6	34.6 µM
N#Cc1c(Cl)c(Cl)c2nnc(-c3ccc(Br)cc3)n2c1Cl	40.1	> 50 µM (inactive)
CNC(=O)c1nnsc1S(=O)c1ccc(Cl)cc1 (stereo not given)	74.6	7.18 µM
C=CCn1c(C)cc(C(=O)Cn2ncc(Cl)c(Cl)c2=O)c1C	86.5	10.3 µM
CCN(CC)c1ccc(/C=C/C(=O)c2ccc(Br)cc2)cc1	7.65	> 50 µM (inactive)

Reference: PubChem BioAssay AID463136 (University of Pittsburgh Molecular Library Screening Center, 2010)
